The record followed here is patent US10479780B2, “Aminopyrazole derivatives” (Chugai Seiyaku Kabushiki Kaisha, priority 2015, dated 2019).

Each structure is given as a SMILES string. Read-outs that look alike come from different tables or passages of the source.

Format in all cases: biochemical
One experiment concerns the target T1, human Yes1 enzyme (Homo sapiens, UniProt P07947).
T1 construct: made in house
Kind of experiment: Yes1 enzyme inhibitory activity (time-resolved fluorometry, biotinylated peptide phosphorylation). The settings on record: read-out: YES_IC50. The gist of the method:
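Inhibition was expressed against a compound-free control to give IC50, using TR-FRET read-out (Eu-cryptate anti-pTyr antibody, streptavidin-XL665).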

Another experiment addresses T2, human Lck enzyme (Homo sapiens, UniProt P06239).
T2 construct: purchased Carna Biosciences, Inc. 08-170
Kind of experiment: Lck enzyme inhibitory activity (time-resolved fluorometry, biotinylated peptide phosphorylation). As to conditions: read-out: LCK_IC50. The method, boiled down:
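Readout pairs a europium cryptate-labelled anti-phosphotyrosine antibody with XL665-streptavidin, measured by time-resolved fluorescence. IC50 derived from percent inhibition against untreated controls.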

In the next experiment the target is T3, human Src enzyme (Homo sapiens, UniProt P12931).
T3 construct: purchased Carna Biosciences, Inc. 08-173
As to the kind of experiment: Src enzyme inhibitory activity (time-resolved fluorometry, biotinylated peptide phosphorylation). As to conditions: read-out: SRC_IC50. The gist of the method: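 Compounds were tested for blocking tyrosine phosphorylation of a biotinylated peptide substrate by recombinant human Src. Phosphorylated product was quantified by time-resolved fluorometry using europium cryptate and XL665 conjugates, and IC50 was calculated against the compound-free control.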

The mark [1] stands for this setting: biotinylated peptide phosphorylation.

T2 sequence (P06239 whole entry): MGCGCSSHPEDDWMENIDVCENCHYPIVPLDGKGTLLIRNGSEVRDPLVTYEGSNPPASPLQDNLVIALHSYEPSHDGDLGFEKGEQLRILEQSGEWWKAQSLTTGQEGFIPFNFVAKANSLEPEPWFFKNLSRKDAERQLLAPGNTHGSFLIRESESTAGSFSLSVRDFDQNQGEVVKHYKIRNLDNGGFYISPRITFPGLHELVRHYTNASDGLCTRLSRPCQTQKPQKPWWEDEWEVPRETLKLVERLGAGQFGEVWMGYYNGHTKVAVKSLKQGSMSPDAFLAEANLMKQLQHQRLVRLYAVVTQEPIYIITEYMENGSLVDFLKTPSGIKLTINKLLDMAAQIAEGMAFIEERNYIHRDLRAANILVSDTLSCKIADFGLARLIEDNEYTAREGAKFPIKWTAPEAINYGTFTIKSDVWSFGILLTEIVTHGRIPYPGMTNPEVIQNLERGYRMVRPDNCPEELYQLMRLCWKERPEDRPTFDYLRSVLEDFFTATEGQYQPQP
T1 sequence (P07947 whole entry): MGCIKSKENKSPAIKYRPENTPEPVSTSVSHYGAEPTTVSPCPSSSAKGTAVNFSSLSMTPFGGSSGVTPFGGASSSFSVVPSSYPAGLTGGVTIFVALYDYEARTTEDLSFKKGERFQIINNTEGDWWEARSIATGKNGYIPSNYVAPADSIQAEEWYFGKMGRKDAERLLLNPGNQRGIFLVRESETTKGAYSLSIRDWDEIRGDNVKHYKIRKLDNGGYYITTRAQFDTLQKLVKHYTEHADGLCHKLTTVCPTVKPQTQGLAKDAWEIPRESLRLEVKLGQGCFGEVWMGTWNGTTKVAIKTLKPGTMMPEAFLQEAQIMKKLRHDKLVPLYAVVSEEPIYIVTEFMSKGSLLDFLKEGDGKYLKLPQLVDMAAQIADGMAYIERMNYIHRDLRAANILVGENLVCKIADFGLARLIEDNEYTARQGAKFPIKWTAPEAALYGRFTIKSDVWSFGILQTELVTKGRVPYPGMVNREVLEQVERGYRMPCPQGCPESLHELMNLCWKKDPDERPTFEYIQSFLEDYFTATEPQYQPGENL
T3 sequence (P12931 whole entry): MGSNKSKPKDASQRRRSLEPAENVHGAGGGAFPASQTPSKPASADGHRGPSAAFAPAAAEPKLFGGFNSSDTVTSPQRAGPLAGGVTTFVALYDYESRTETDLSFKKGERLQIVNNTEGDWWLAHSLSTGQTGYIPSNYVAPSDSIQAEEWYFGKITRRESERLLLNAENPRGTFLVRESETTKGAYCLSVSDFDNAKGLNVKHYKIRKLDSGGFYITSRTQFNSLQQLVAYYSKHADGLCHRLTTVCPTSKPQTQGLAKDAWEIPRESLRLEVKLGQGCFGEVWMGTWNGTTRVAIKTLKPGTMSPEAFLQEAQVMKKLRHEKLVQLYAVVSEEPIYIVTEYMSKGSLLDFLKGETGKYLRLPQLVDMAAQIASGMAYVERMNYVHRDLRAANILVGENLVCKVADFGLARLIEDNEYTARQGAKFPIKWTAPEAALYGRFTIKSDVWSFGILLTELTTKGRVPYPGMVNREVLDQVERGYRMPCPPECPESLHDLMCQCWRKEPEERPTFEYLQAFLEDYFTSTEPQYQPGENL

As to `Cc1cc2cc(C(=O)c3cnn(-c4cnc(Oc5c(F)cccc5F)cc4C)c3N)[nH]c2cc1NS(=O)(=O)C1CCCCC1` [Example 5-1-314, N-[2-[5-amino-1-[6-(2,6-difluorophenoxy)-4-methylpyridin-3-yl]pyrazole-4-carbonyl]-5-methyl-1H-indol-6-yl]cyclohexanesulfonamide], the IC50 on human Yes1 enzyme turned out to be 9.6 nM; on human Lck enzyme it was 150 nM; on human Src enzyme, 480 nM.

On to `Cc1cc(Oc2c(F)cccc2F)ncc1-n1ncc(C(=O)c2cc3cc(F)c(N4CCOC4=O)cc3[nH]2)c1N` [Example 5-1-097, 3-[2-[5-amino-1-[6-(2,6-difluorophenoxy)-4-methylpyridin-3-yl]pyrazole-4-carbonyl]-5-fluoro-1H-indol-6-yl]-1,3-oxazolidin-2-one], for which the results for the IC50 at human Yes1 enzyme, at human Lck enzyme and on human Src enzyme were 1.1 nM, 1.3 nM and 8.7 nM, respectively.

For the molecule `CC(=O)N1CCC(c2cc3[nH]c(C(=O)c4cnn(-c5c(C)cc(Oc6ccccc6F)cc5F)c4N)cc3cc2OCC(F)F)CC1` [Example 4-17-017, 1-[4-[2-[5-amino-1-[2-fluoro-4-(2-fluorophenoxy)-6-methylphenyl]pyrazole-4-carbonyl]-5-(2,2-difluoroethoxy)-1H-indol-6-yl]piperidin-1-yl]ethanone], the figures for the IC50 at human Yes1 enzyme (setting [1]), on human Lck enzyme (setting [1]) and on human Src enzyme (setting [1]) were 2.1 nM, 5.8 nM and 17 nM, respectively.

As to `Cc1cc2cc(C(=O)c3cnn(-c4cnc(Oc5c(F)cccc5F)cc4C)c3N)[nH]c2cc1N1C(=O)NC2(CCNCC2)C1=O` [Example 5-1-357, 3-[2-[5-amino-1-[6-(2,6-difluorophenoxy)-4-methylpyridin-3-yl]pyrazole-4-carbonyl]-5-methyl-1H-indol-6-yl]-1,3,8-triazaspiro[4.5] decane-2,4-dione], the IC50 was determined as 2.3 nM at human Yes1 enzyme, 4.4 nM on human Lck enzyme and 39 nM on human Src enzyme.

Turning to `Cc1cc(Oc2ccccc2F)ccc1-n1ncc(C(=O)c2cc3cc(OCC(F)F)c(N4C(=O)NC(C)(C)C4=O)cc3[nH]2)c1N` [Example 4-23-033, 3-[2-[5-amino-1-[4-(2-fluorophenoxy)-2-methylphenyl]pyrazole-4-carbonyl]-5-(2,2-difluoroethoxy)-1H-indol-6-yl]-5,5-dimethylimidazolidine-2,4-dione], the results for the IC50 on human Yes1 enzyme (setting [1]), at human Lck enzyme (setting [1]) and on human Src enzyme (setting [1]) were 0.5 nM, 2.1 nM and 6.1 nM, respectively.

Regarding `Cc1cc(Oc2ccccc2F)ccc1-n1ncc(C(=O)c2cc3cc(F)c(NS(=O)(=O)c4cccc(C#N)n4)cc3[nH]2)c1N` [Example 5-1-537, N-[2-[5-amino-1-[4-(2-fluorophenoxy)-2-methylphenyl]pyrazole-4-carbonyl]-5-fluoro-1H-indol-6-yl]-6-cyanopyridine-2-sulfonamide], the figures for the IC50 at human Yes1 enzyme (setting [1]), on human Lck enzyme (setting [1]) and at human Src enzyme (setting [1]) were 3 nM, 57 nM and 320 nM, respectively.

Consider `Cc1cc2cc(C(=O)c3cnn(-c4c(C)cc(Oc5cccc(F)c5F)cc4F)c3N)[nH]c2cc1NS(C)(=O)=O` [Example 4-2-056, N-[2-[5-amino-1-[4-(2,3-difluorophenoxy)-2-fluoro-6-methylphenyl]pyrazole-4-carbonyl]-5-methyl-1H-indol-6-yl]methanesulfonamide], for which the IC50 was determined as 3.9 nM at human Yes1 enzyme (setting [1]), 24 nM on human Lck enzyme (setting [1]) and 97 nM at human Src enzyme (setting [1]).

Regarding `Cc1cc(-n2ncc(C(=O)c3cc4cc(OC5CCN(C(C)C)CC5)c(C5CCOCC5)cc4[nH]3)c2N)ccc1Oc1ccccc1F` [Example 5-1-247, (5-amino-1-(4-(2-fluorophenoxy)-3-methylphenyl)-1H-pyrazol-4-yl)(5-((1-isopropylpiperidin-4-yl)oxy)-6-(tetrahydro-2H-pyran-4-yl)-1H-indol-2-yl)methanone], the IC50 stood at 2.1 nM at human Yes1 enzyme, 34 nM at human Lck enzyme and 120 nM at human Src enzyme.

On to `CC(C)N1CCC(c2cc3[nH]c(C(=O)c4cnn(-c5ccc(Oc6cccc(F)c6)cc5F)c4N)cc3cc2F)CC1` [Example 5-1-006, [5-amino-1-[2-fluoro-4-(3-fluorophenoxy)phenyl]pyrazol-4-yl]-[5-fluoro-6-(1-propan-2-ylpiperidin-4-yl)-1H-indol-2-yl]methanone], for which the IC50 was 0.73 nM on human Yes1 enzyme, 6 nM on human Lck enzyme and 56 nM on human Src enzyme.

Regarding `COc1cc2cc(C(=O)c3cnn(-c4cnc(Oc5c(F)cccc5F)cc4C)c3N)[nH]c2cc1NS(=O)(=O)CC(=O)N1CCOCC1` [Example 5-1-143, N-[2-[5-amino-1-[6-(2,6-difluorophenoxy)-4-methylpyridin-3-yl]pyrazole-4-carbonyl]-5-methoxy-1H-indol-6-yl]-2-morpholin-4-yl-2-oxoethanesulfonamide], the figures for the IC50 on human Yes1 enzyme, on human Lck enzyme and on human Src enzyme were 0.59 nM, 11 nM and 15 nM, respectively.

Consider `Cc1cc(Oc2ccccc2F)ccc1-n1ncc(C(=O)c2cc3cc(F)c(NS(=O)(=O)c4c(F)cc(F)cc4F)cc3[nH]2)c1N` [Example 5-1-566, N-[2-[5-amino-1-[4-(2-fluorophenoxy)-2-methylphenyl]pyrazole-4-carbonyl]-5-fluoro-1H-indol-6-yl]-2,4,6-trifluorobenzenesulfonamide], for which the IC50 at human Yes1 enzyme (setting [1]) was 5.6 nM; on human Lck enzyme (setting [1]) it was 340 nM; at human Src enzyme (setting [1]), 810 nM.

As to `Cc1cc(Oc2ccccc2F)ncc1-n1ncc(C(=O)c2cc3cc(OCC(F)F)c(NS(=O)(=O)C4CC4)cc3[nH]2)c1N` [Example 4-24-027, N-[2-[5-amino-1-[6-(2-fluorophenoxy)-4-methylpyridin-3-yl]pyrazole-4-carbonyl]-5-(2,2-difluoroethoxy)-1H-indol-6-yl]cyclopropanesulfonamide], the results for the IC50 on human Yes1 enzyme (setting [1]), at human Lck enzyme (setting [1]) and at human Src enzyme (setting [1]) were 3.2 nM, 55 nM and 140 nM, respectively.

Consider `Cc1cc2cc(C(=O)c3cnn(-c4cnc(Oc5ccccc5F)cc4C)c3N)[nH]c2cc1NS(=O)(=O)c1cccc(F)n1` [Example 5-1-502, N-[2-[5-amino-1-[6-(2-fluorophenoxy)-4-methylpyridin-3-yl]pyrazole-4-carbonyl]-5-methyl-1H-indol-6-yl]-6-fluoropyridine-2-sulfonamide], for which the figures for the IC50 on human Yes1 enzyme (setting [1]), at human Lck enzyme (setting [1]) and at human Src enzyme (setting [1]) were 2.3 nM, 110 nM and 350 nM, respectively.

For `Cc1cc2cc(C(=O)c3cnn(-c4ccc(Oc5c(F)cccc5Cl)cc4C)c3N)[nH]c2cc1NS(C)(=O)=O` [Example 5-1-096, N-[2-[5-amino-1-[4-(2-chloro-6-fluorophenoxy)-2-methylphenyl]pyrazole-4-carbonyl]-5-methyl-1H-indol-6-yl] methanesulfonamide], the IC50 turned out to be 1.7 nM at human Yes1 enzyme, 2.7 nM on human Lck enzyme and 33 nM at human Src enzyme.

Take `Cc1cc(Oc2c(F)cccc2F)ncc1-n1ncc(C(=O)c2cc3cc(OC(F)F)c(N4C(=O)C(C)(C)NC4=S)cc3[nH]2)c1N` [Example 4-23-038, 3-[2-[5-amino-1-[6-(2,6-difluorophenoxy)-4-methylpyridin-3-yl]pyrazole-4-carbonyl]-5-(difluoromethoxy)-1H-indol-6-yl]-5,5-dimethyl-2-sulfanylideneimidazolidin-4-one]: the IC50 worked out at 1.2 nM at human Yes1 enzyme (setting [1]), 10 nM on human Lck enzyme (setting [1]) and 71 nM on human Src enzyme (setting [1]).
